According to ChEMBL document CHEMBL1135561, “Development of a phosphatase-stable phosphotyrosyl mimetic suitably protected for the synthesis of high-affinity Grb2 SH2 domain-binding ligands” (Bioorg Med Chem Lett, 2002):

Tests used:
[1] = system: MDA-MB-453; test: Inhibition of MDA-MB-453 cell proliferation; type: functional, cell-based; conditions: Homo sapiens
[2] = biological target: T1, Growth factor receptor-bound protein 2 (Homo sapiens, UniProt P62993); test: Binding affinity for Growth factor receptor bound protein 2 SH2 domain
[3] = biological target: T1, Growth factor receptor-bound protein 2; test: Inhibition of Growth factor receptor bound protein 2 SH2 domain binding to p185erbB-2 receptor

T1 sequence (P62993 whole entry, the tested form may be a part): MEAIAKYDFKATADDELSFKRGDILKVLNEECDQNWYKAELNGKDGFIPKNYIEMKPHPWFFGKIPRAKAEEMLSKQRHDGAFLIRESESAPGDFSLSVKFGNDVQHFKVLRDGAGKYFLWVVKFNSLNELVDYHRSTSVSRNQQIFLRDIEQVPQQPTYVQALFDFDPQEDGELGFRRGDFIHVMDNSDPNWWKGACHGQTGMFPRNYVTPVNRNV

SMILES | IC50 [1] | IC50 [2] | IC50 [3]
NC(=O)C[C@H](NC(=O)C1(NC(=O)[C@H](Cc2ccc(CP(=O)(O)O)cc2)NC(=O)C(=O)O)CCCCC1)C(=O)NCCCc1cccc2ccccc12 | 5 µM | 0.009 µM | 3 µM
[N-]=[N+]=N[C@@H](Cc1ccc(CP(=O)(O)O)cc1)C(=O)NC1(C(=O)N[C@@H](CC(N)=O)C(=O)NCCCc2cccc3ccccc23)CCCCC1 | > 50 µM | 5 µM | > 30 µM
NC(=O)C[C@H](NC(=O)C1(NC(=O)[C@@H](CC(=O)O)Cc2ccc(CP(=O)(O)O)cc2)CCCCC1)C(=O)NCCCc1cccc2ccccc12 | 8 µM | 0.008 µM | 10 µM
